Molecular target: human MGL from HeLa cells (Homo sapiens (Human), UniProt Q99685)
Test: MGL in vitro activity assay ([glycerol-1,3-3H]-oleoyl glycerol hydrolysis, activated carbon filtration)
Format: biochemical
Conditions: 300 nM [Glycerol-1,3-3H]-oleoyl glycerol, one hour
Outline: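 Endogenous human MGL in HeLa cells/homogenates incubated 1 h with test compounds and 300 nM [glycerol-1,3-3H]-oleoyl glycerol. Released 3H-glycerol passing an activated carbon filter counted as activity; screening at 10 μM compound, top IC50 concentration set empirically.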

Sequence of human MGL from HeLa cells (Q99685 whole entry): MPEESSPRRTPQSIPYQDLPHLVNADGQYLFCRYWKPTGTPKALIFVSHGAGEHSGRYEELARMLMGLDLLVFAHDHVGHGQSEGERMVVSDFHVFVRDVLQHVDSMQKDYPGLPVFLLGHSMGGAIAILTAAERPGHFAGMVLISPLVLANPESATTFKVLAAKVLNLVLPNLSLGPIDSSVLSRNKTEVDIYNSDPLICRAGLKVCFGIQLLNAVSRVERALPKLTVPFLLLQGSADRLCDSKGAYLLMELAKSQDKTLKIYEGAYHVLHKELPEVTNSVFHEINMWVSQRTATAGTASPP

Compared with `C[C@]1(O)C[C@@H](C(=O)N2CC3(CCC(Oc4ncc(C(F)(F)F)cn4)CC3)C2)C1` [Example 467, ((1s,3s)-3-Hydroxy-3-methylcyclobutyl)(7-((5-(trifluoromethyl)pyrimidin-2-yl)oxy)-2-azaspiro[3.5]nonan-2-yl)methanone], `Cn1cc(C(F)(F)F)c2ccc(OC3CCC4(CC3)CN(C(=O)[C@H]3C[C@@](C)(O)C3)C4)nc21` [Example 476, ((1s,3s)-3-Hydroxy-3-methylcyclobutyl)(7-((1-methyl-3-(trifluoromethyl)-1H-pyrrolo[2,3-b]pyridin-6-yl)oxy)-2-azaspiro[3.5]nonan-2-yl)methanone] is 610-fold lower in IC50: 858 nM for the first, 1.4 nM for the second. The second is the more potent here.

Going from `C[C@]1(O)C[C@@H](C(=O)N2CC3(CCC(Oc4ccc5c(n4)CCC5)CC3)C2)C1` [Example 468, (7-((6,7-Dihydro-5H-cyclopenta[b]pyridin-2-yl)oxy)-2-azaspiro[3.5]nonan-2-yl)((1s,3s)-3-hydroxy-3-methylcyclobutyl)methanone] to `Cn1ncc2ccc(OC3CCC4(CC3)CN(C(=O)[C@H]3C[C@@](C)(O)C3)C4)nc21` [Example 477, ((1s,3s)-3-Hydroxy-3-methylcyclobutyl)(7-((1-methyl-1H-pyrazolo[3,4-b]pyridin-6-yl)oxy)-2-azaspiro[3.5]nonan-2-yl)methanone], the IC50 rises from 29 nM to 146 nM (5-fold). The first is the more potent here.

`Cn1ccc2ccc(OC3CCC4(CC3)CN(C(=O)[C@H]3C[C@@](C)(O)C3)C4)nc21` [Example 469, ((1s,3s)-3-Hydroxy-3-methylcyclobutyl)(7-((1-methyl-1H-pyrrolo[2,3-b]pyridin-6-yl)oxy)-2-azaspiro[3.5]nonan-2-yl)methanone] and `Cc1cc2ccc(OC3CCC4(CC3)CN(C(=O)[C@H]3C[C@@](C)(O)C3)C4)nc2n1C` [Example 472, (7-((1,2-Dimethyl-1H-pyrrolo[2,3-b]pyridin-6-yl)oxy)-2-azaspiro[3.5]nonan-2-yl)((1s,3s)-3-hydroxy-3-methylcyclobutyl)methanone] are within 1.5-fold of each other in IC50: 18 nM for the first, 26 nM for the second.

Compared with `Cc1cc(OC2CCC3(CC2)CN(C(=O)[C@H]2C[C@@](C)(O)C2)C3)nc2c1ccn2C` [Example 470, (7-((1,4-Dimethyl-1H-pyrrolo[2,3-b]pyridin-6-yl)oxy)-2-azaspiro[3.5]nonan-2-yl)((1s,3s)-3-hydroxy-3-methylcyclobutyl)methanone], `Cc1cn(C)c2nc(OC3CCC4(CC3)CN(C(=O)[C@H]3C[C@@](C)(O)C3)C4)ccc12` [Example 471, (7-((1,3-Dimethyl-1H-pyrrolo[2,3-b]pyridin-6-yl)oxy)-2-azaspiro[3.5]nonan-2-yl)((1s,3s)-3-hydroxy-3-methylcyclobutyl)methanone] is 5.5-fold lower in IC50: 11 nM for the first, 2 nM for the second.

Going from `Cc1cc2ccn(C)c2nc1OC1CCC2(CC1)CN(C(=O)[C@H]1C[C@@](C)(O)C1)C2` [Example 473, (7-((1,5-Dimethyl-1H-pyrrolo[2,3-b]pyridin-6-yl)oxy)-2-azaspiro[3.5]nonan-2-yl)((1s,3s)-3-hydroxy-3-methylcyclobutyl)methanone] to `Cn1cc(F)c2ccc(OC3CCC4(CC3)CN(C(=O)[C@H]3C[C@@](C)(O)C3)C4)nc21` [Example 474, (7-((3-Fluoro-1-methyl-1H-pyrrolo[2,3-b]pyridin-6-yl)oxy)-2-azaspiro[3.5]nonan-2-yl)((1s,3s)-3-hydroxy-3-methylcyclobutyl)methanone], the IC50 rises from 1.2 nM to 5.5 nM (4.6-fold).

First: CCn1cc(F)c2ccc(OC3CCC4(CC3)CN(C(=O)[C@H]3C[C@@](C)(O)C3)C4)nc21 [Example 475, (7-((1-Ethyl-3-fluoro-1H-pyrrolo[2,3-b]pyridin-6-yl)oxy)-2-azaspiro[3.5]nonan-2-yl)((1s,3s)-3-hydroxy-3-methylcyclobutyl)methanone]
Second: Cc1nc(OC2CC3(CCN(C(=O)[C@H]4C[C@@](C)(O)C4)CC3)C2)ccc1C(F)(F)F [Example 482, ((1s,3s)-3-Hydroxy-3-methylcyclobutyl)(2-((6-methyl-5-(trifluoromethyl)pyridin-2-yl)oxy)-7-azaspiro[3.5]nonan-7-yl)methanone]
The IC50 of the first is 13-fold lower: 4.6 nM for the first, 61 nM for the second. The first is the more potent here.

Compared with `COc1cc(C)cc(C2CC3(CCN(C(=O)[C@H]4C[C@@](C)(O)C4)CC3)C2)c1` [Example 478, ((1s,3s)-3-Hydroxy-3-methylcyclobutyl)(2-(3-methoxy-5-methylphenyl)-7-azaspiro[3.5]nonan-7-yl)methanone], `Cc1cc(OC2CC3(CCN(C(=O)[C@H]4C[C@@](C)(O)C4)CC3)C2)ccc1C(F)(F)F` [Example 480, ((1s,3s)-3-Hydroxy-3-methylcyclobutyl)(2-(3-methyl-4-(trifluoromethyl)phenoxy)-7-azaspiro[3.5]nonan-7-yl)methanone] is 35-fold lower in IC50: 203 nM for the first, 5.8 nM for the second.

Compared with `Cc1cc(C(F)(F)F)ccc1OC1CC2(CCN(C(=O)[C@H]3C[C@@](C)(O)C3)CC2)C1` [Example 479, ((1s,3s)-3-Hydroxy-3-methylcyclobutyl)(2-(2-methyl-4-(trifluoromethyl)phenoxy)-7-azaspiro[3.5]nonan-7-yl)methanone], `Cc1cc(C(F)(F)F)cnc1OC1CC2(CCN(C(=O)[C@H]3C[C@@](C)(O)C3)CC2)C1` [Example 481, ((1s,3s)-3-Hydroxy-3-methylcyclobutyl)(2-((3-methyl-5-(trifluoromethyl)pyridin-2-yl)oxy)-7-azaspiro[3.5]nonan-7-yl)methanone] is 4.8-fold higher in IC50: 3.1 nM for the first, 15 nM for the second.
